{"source": "paper PMC10794144", "about": "“A novel antibiotic class targeting the lipopolysaccharide transporter” (Nature, 2024)", "key": {"A. baumannii [1]": {"system": "A. baumannii", "assay": "Neutropaenic mouse thigh infection model", "assay_type": "in vivo", "conditions": "24 h", "protocol": "An intramuscular inoculation of a bacterial suspension of approximately 10^6 CFU per thigh was used to induce the infection. Treatment started 2 h after infection. […] In the pneumonia model, an intratracheal inoculation of approximately 10^7 CFU per lung was used to induce the infection. Treatment started 2 h after infection. […] Standard of care antibiotic was tested at a single dose in both infection models. GraphPad Prism 8 was used for graphical presentation and to analyse data."}, "A. baumannii ACC01073": {"system": "A. baumannii ACC01073", "assay": "Neutropaenic mouse lung infection (pneumonia) model", "assay_type": "in vivo", "conditions": "120 mg/kg/day q12h", "protocol": "An intramuscular inoculation of a bacterial suspension of approximately 10^6 CFU per thigh was used to induce the infection. Treatment started 2 h after infection. […] Thigh bacterial burden was determined after 24 h of treatment. In the pneumonia model, an intratracheal inoculation of approximately 10^7 CFU per lung was used to induce the infection. Treatment started 2 h after infection. […] Lung bacterial burden was determined after 24 h treatment. Standard of care antibiotic was tested at a single dose in both infection models. GraphPad Prism 8 was used for graphical presentation and to analyse data."}, "A. baumannii [2]": {"system": "A. baumannii", "assay": "microbe, parasite or virus in culture", "conditions": "CAMHB; for MIC: MCPs read at 80% inhibition", "protocol": "MIC determinations were performed using the broth microdilution method and in line with CLSI guidelines M07 and M100 (refs. [37],[38]). Bacterial inocula were prepared by diluting a 0.5 McFarland suspension in CAMHB or lysogeny broth (LB) specifically for A. baylyi isolates. […] MIC values of all of the tested antibiotics were read as the lowest compound concentration inhibiting bacterial growth by naked eye or beyond which the OD600 ceased to decrease."}}}
{"molecule": "C[C@@H](O)[C@H]1C(=O)N2C(C(=O)O)=C(S[C@@H]3CN[C@H](C(=O)N(C)C)C3)[C@H](C)[C@H]12", "note": "[MRP]", "values": [{"measurement": "log CFU/thigh, average", "setting": "A. baumannii [1]; A. baumannii ACC00535 (APV00535), neutropenic mice, MERO 100 mg/kg, average of 8 samples", "value": 8.52, "unit": "log CFU/thigh"}, {"measurement": "delta 2 hr; Δ log (vs. veh 2hrs)", "setting": "A. baumannii [1]; A. baumannii ACC00535 (APV00535), neutropenic mice, MERO 100 mg/kg, change of average log CFU/thigh vs start of therapy (2 h)", "value": 2.37}]}
{"molecule": "CN(C)c1cc(NC(=O)CNC(C)(C)C)c(O)c2c1C[C@H]1C[C@H]3[C@H](N(C)C)C(O)=C(C(N)=O)C(=O)[C@@]3(O)C(O)=C1C2=O", "note": "[tigecycline, reference compound]", "values": [{"measurement": "ΔLog CFU/lungs vs A/0h", "setting": "A. baumannii ACC01073", "value": 0.70}, {"measurement": "CFU/lungs, average", "setting": "A. baumannii ACC01073; n = 6", "value": "4.23E+08"}, {"measurement": "Log CFU/lungs, average (bacterial load)", "setting": "A. baumannii ACC01073; n = 6", "value": 8.39}, {"measurement": "MIC90", "setting": "A. baumannii [2]; Acinetobacter baumannii, 129 clinical isolates", "value": 8, "unit": "µg/mL"}, {"measurement": "MIC", "setting": "A. baumannii [2]; Acinetobacter baumannii, ACC00445", "value": 2, "unit": "µg/mL"}, {"measurement": "MIC", "setting": "A. baumannii [2]; Acinetobacter baumannii, ACC00535", "value": 0.5, "unit": "µg/mL"}, {"measurement": "MIC", "setting": "A. baumannii [2]; Acinetobacter baumannii, ACC01073", "value": 4, "unit": "µg/mL"}, {"measurement": "MIC", "setting": "A. baumannii [2]; Acinetobacter baumannii, ACC01077", "value": 2, "unit": "µg/mL"}, {"measurement": "MIC", "setting": "A. baumannii [2]; Acinetobacter baumannii, ACC01085 / AR0307", "value": 4, "unit": "µg/mL"}, {"measurement": "MIC", "setting": "A. baumannii [2]; Acinetobacter baumannii, ATCC17978, ATCC 17978", "value": 0.5, "unit": "µg/mL"}, {"measurement": "MIC", "setting": "A. baumannii [2]; Acinetobacter baumannii, ATCC19606, ATCC 19606", "value": 1, "unit": "µg/mL"}, {"measurement": "MIC", "setting": "A. baumannii [2]; Acinetobacter baumannii, ATCCBAA747, ATCC BAA-747", "value": 0.25, "unit": "µg/mL"}, {"measurement": "MIC", "setting": "A. baumannii [2]; Acinetobacter baumannii, ROB08701", "value": 1, "unit": "µg/mL"}, {"measurement": "MIC", "setting": "A. baumannii [2]; Acinetobacter baumannii, ROB08702", "value": 4, "unit": "µg/mL"}, {"measurement": "MIC", "setting": "A. baumannii [2]; Acinetobacter baumannii, ROB08703", "value": 16, "unit": "µg/mL"}, {"measurement": "MIC", "setting": "A. baumannii [2]; Acinetobacter baumannii, ROB08704", "value": 0.5, "unit": "µg/mL"}, {"measurement": "MIC", "setting": "A. baumannii [2]; Acinetobacter baumannii, ROB08705", "value": 1, "unit": "µg/mL"}, {"measurement": "MIC", "setting": "A. baumannii [2]; Acinetobacter baumannii, ROB08706", "value": 8, "unit": "µg/mL"}, {"measurement": "MIC", "setting": "A. baumannii [2]; Acinetobacter baumannii, ROB08707", "value": 0.5, "unit": "µg/mL"}, {"measurement": "MIC", "setting": "A. baumannii [2]; Acinetobacter baumannii, ROB08708", "value": 1, "unit": "µg/mL"}, {"measurement": "MIC", "setting": "A. baumannii [2]; Acinetobacter baumannii, ROB08709", "value": 1, "unit": "µg/mL"}, {"measurement": "MIC", "setting": "A. baumannii [2]; Acinetobacter baumannii, ROB08710", "value": 1, "unit": "µg/mL"}]}
{"molecule": "colistin [reference compound]", "values": [{"measurement": "Bacterial Load (average)", "setting": "A. baumannii [1]; A. baumannii ACC01085, neutropenic mice, 60 mg/kg/day q8h, summary table, same as average Log CFU/Thigh", "value": 3.39}, {"measurement": "MIC", "setting": "A. baumannii [2]; ACC00445", "value": 0.25, "unit": "µg/mL"}, {"measurement": "MIC", "setting": "A. baumannii [2]; ACC00535", "value": 0.5, "unit": "µg/mL"}, {"measurement": "MIC", "setting": "A. baumannii [2]; ACC01073", "value": ">16", "unit": "µg/mL"}, {"measurement": "MIC", "setting": "A. baumannii [2]; ACC01077", "value": 16, "unit": "µg/mL"}, {"measurement": "MIC", "setting": "A. baumannii [2]; ACC01085 / AR0307", "value": 4, "unit": "µg/mL"}, {"measurement": "MIC", "setting": "A. baumannii [2]; ATCC 17978", "value": 0.25, "unit": "µg/mL"}, {"measurement": "MIC", "setting": "A. baumannii [2]; ATCC 19606", "value": 0.5, "unit": "µg/mL"}, {"measurement": "MIC", "setting": "A. baumannii [2]; ATCC BAA-747", "value": 0.5, "unit": "µg/mL"}, {"measurement": "MIC", "setting": "A. baumannii [2]; ROB08701", "value": 1, "unit": "µg/mL"}, {"measurement": "MIC", "setting": "A. baumannii [2]; ROB08702", "value": 2, "unit": "µg/mL"}, {"measurement": "MIC", "setting": "A. baumannii [2]; ROB08703", "value": 0.5, "unit": "µg/mL"}, {"measurement": "MIC", "setting": "A. baumannii [2]; ROB08704", "value": 2, "unit": "µg/mL"}, {"measurement": "MIC", "setting": "A. baumannii [2]; ROB08705", "value": 0.5, "unit": "µg/mL"}, {"measurement": "MIC", "setting": "A. baumannii [2]; ROB08706", "value": 0.25, "unit": "µg/mL"}, {"measurement": "MIC", "setting": "A. baumannii [2]; ROB08707", "value": 2, "unit": "µg/mL"}, {"measurement": "MIC", "setting": "A. baumannii [2]; ROB08708", "value": 0.25, "unit": "µg/mL"}, {"measurement": "MIC", "setting": "A. baumannii [2]; ROB08709", "value": 1, "unit": "µg/mL"}, {"measurement": "MIC", "setting": "A. baumannii [2]; ROB08710", "value": 2, "unit": "µg/mL"}]}
